Source: US20220117266A1, “NICKEL CHELATION THERAPY” (priority 2019, published 2022)

Key:
MDR K. pneumoniae = test: Galleria mellonella infection model; type: in vivo; conditions: 5 μl of 250 mM DMG (approx. 0.38 mg) injected five to ten minutes prior to bacterial challenge
Experimental: (§1) Attempts to establish a reliable K. pneumoniae infection model in mice failed, so an alternate animal model was chosen.
(§2) Galleria mellonella (wax moth) experiments. Wax moth larvae were obtained from local pet stores, from two different suppliers: the bug company (Ham Lake, Minn.; www.ebugco.com) and Timberline (Marion, Ill.; www.timberlinefresh.com). Larvae were stored in wood shavings at 4° C. in the dark and used within two weeks after purchase. Only larvae weighing 300±50 mg were selected for the experiments. Groups of ten larvae were used for each experiment. The site of injection (last right or left proleg) was disinfected with ethanol 70% (vol/vol) before and after each injection. A 10 μL-Hamilton syringe fitted with a […] needle (Becton Dickinson, Franklin Lakes, N.J.) was used to inject 5 μL. After injection, larvae were kept in 9.2-cm Petri dishes at 37° C. in the dark with no food. Larvae were monitored daily for […] and mortality (as defined by change of pigmentation and absence of response following physical stimulation) was recorded. […] Bacterial suspensions were prepared as follows: cells were grown overnight in 5 mL of Mueller Hinton broth, harvested, washed once, and resuspended in sterile 0.8% NaCl to a final OD600 of 0.1 (approximately 10^8 CFU/mL, as determined by CFU counts on serially diluted samples).

MDR S. Typhimurium = test: Galleria mellonella infection model; type: in vivo; conditions: 5 μl of 250 mM DMG (approx. 0.38 mg) injected five to ten minutes prior to bacterial challenge
Experimental: as §1, §2

**Q.** What does the source list for `CC(=NO)C(C)=NO` [DMG, dimethylglyoxime]?
**A.** survival rate of larvae (MDR K. pneumoniae): 40%; survival rate of larvae (MDR S. Typhimurium): 60%
